# Legend:
# Rattus norvegicus [1] = organism: Rattus norvegicus; assay: Vasorelaxant potency determined by measurement of IC50 value for relaxation of rat aorta precontracted with methoxamine; assay type: functional
# Rattus norvegicus [2] = organism: Rattus norvegicus; assay: Antiischemic potency is determined by EC25 value for increase in time to the onset of contracture in globally ischemic isolated perfused rat hearts.; assay type: functional
# Rattus norvegicus [3] = organism: Rattus norvegicus; assay: Ratio of the EC25 value for time to contracture and IC50 value for vasorelaxant potency indicates selectivity in vitro for the ischemic myocardium.; assay type: functional
# Rattus norvegicus [4] = organism: Rattus norvegicus; assay: Percent increase in cardio protective activity at concentration of 10 uM; assay type: functional, Heart
# [5] = Oral bioavailability in rats was determined in vivo; assay type: ADME, organism-based; settings: rat, read-out: Bioavailabiility
# [6] = Maximum plasma concentration following oral administration of 30 umol/kg; assay type: ADME, organism-based; parameters: dose 30 umol/kg, route oral
# [7] = Pharmacokinetic parameter Tmax following oral administration of 30 umol/kg; assay type: ADME, organism-based; settings: in vivo
# [8] = Apparent terminal elimination half life in rats; assay type: ADME, organism-based; settings: rat, in vivo
IC50 (Rattus norvegicus [1]),Structure (SMILES),EC25 (Rattus norvegicus [2]),Ratio (Rattus norvegicus [3]),Increase (Rattus norvegicus [4]),other results
27 µM,CC1(C)Oc2ccc(C#N)cc2[C@H](N(CCS(C)(=O)=O)c2ccccc2)[C@H]1O,–,–,0%,–
> 30 µM,CCOC(=O)CCCN(c1ccccc1)[C@H]1c2cc(C#N)ccc2OC(C)(C)[C@@H]1O,5.7 µM,–,–,–
12 µM,CC1(C)Oc2ccc(C#N)cc2[C@H](N(Cc2ccco2)c2ccccc2)[C@H]1O,3.2 µM,0.27,–,–
2.2 µM,CCOC(=O)NN(c1ccccc1)[C@H]1c2cc(C#N)ccc2OC(C)(C)[C@@H]1O,4.3 µM,1.95,–,–
> 30 µM,Cc1noc(CN(c2ccccc2)[C@H]2c3cc(C#N)ccc3OC(C)(C)[C@@H]2O)n1,10 µM,<0.33,–,–
> 30 µM,Cc1cc(CN(c2ccccc2)[C@H]2c3cc(C#N)ccc3OC(C)(C)[C@@H]2O)on1,–,–,11%,–
59 µM,CC1(C)Oc2ccc(C#N)cc2[C@H](N(CC#N)c2ccccc2)[C@H]1O,–,–,8%,–
84 µM,CCOC(=O)CN(c1nc(C)cs1)[C@H]1c2cc(C#N)ccc2OC(C)(C)[C@@H]1O,7.8 µM,<0.09,–,–
43 µM,CCOC(=O)C(=O)N(c1ccc(F)cc1)[C@H]1c2cc(C#N)ccc2OC(C)(C)[C@@H]1O,–,–,0%,–
> 30 µM,CC1(C)Oc2ccc(C#N)cc2[C@@H](N(Cc2ncc[nH]2)c2ccc(Cl)cc2)[C@@H]1O,–,–,14%,–
54 µM,CCOC(=O)CCN(c1ccccc1)[C@H]1c2cc(C#N)ccc2OC(C)(C)[C@@H]1O,–,–,26%,–
> 30 µM,CCOC(=O)CN(c1nc2ccccc2o1)[C@H]1c2cc(C#N)ccc2OC(C)(C)[C@@H]1O,–,–,0%,–
> 30 µM,CCOC(=O)CN(c1ccccc1)[C@H]1c2cc(C#N)ccc2OC(C)(C)[C@@H]1O,2.2 µM,<0.07,38%,–
> 30 µM,CC(=O)NCCN(c1ccccc1)[C@H]1c2cc(C#N)ccc2OC(C)(C)[C@@H]1O,–,–,5%,–
> 30 µM,CCNC(=O)CN(c1ccccc1)[C@H]1c2cc(C#N)ccc2OC(C)(C)[C@@H]1O,–,–,21%,–
> 30 µM,CC1(C)Oc2ccc(C#N)cc2[C@H](N(Cc2ncc[nH]2)c2ccccc2)[C@H]1O,4.3 µM,<0.14,–,–
> 30 µM,CC1(C)Oc2ccc(C#N)cc2[C@H](N(Cc2ncc[nH]2)c2ccc(Cl)cc2)[C@H]1O [BMS-191095],1.4 µM,<0.05,–,bioavailability [5]: 47%; Cmax [6]: 1300 nM; Tmax [7]: 1.9 h; half-life [8]: 3 h

# More lines, now with the values behind:
Structure (SMILES),IC50 (Rattus norvegicus [1]),EC25 (Rattus norvegicus [2]),Ratio (Rattus norvegicus [3]),Increase (Rattus norvegicus [4]),other results
CCOC(=O)CN(c1ccc(Cl)cc1)[C@H]1c2cc(C#N)ccc2OC(C)(C)[C@@H]1O,> 30 µM,6.5 µM,<0.22,–,–
COCCN(c1ccccc1)[C@H]1c2cc(C#N)ccc2OC(C)(C)[C@@H]1O,> 30 µM,–,–,15%,–
CC1(C)Oc2ccc(C#N)cc2[C@H](N(Cc2ncc[nH]2)c2ccc(F)cc2)[C@H]1O,> 30 µM,3.3 µM,0.11,–,–
CC1(C)Oc2ccc(C#N)cc2[C@H](Nc2ccccc2)[C@H]1O,–,3.9 µM,3.9,–,–
CCOC(=O)CN(c1ccccc1)[C@@H]1c2cc(C#N)ccc2OC(C)(C)[C@H]1O [listing 1 of 2 here],> 30 µM,–,–,5%,–
CCOC(=O)CN(c1ccccc1)[C@@H]1c2cc(C#N)ccc2OC(C)(C)[C@H]1O [listing 2 of 2 here],> 30 µM,4.7 µM,<0.17,–,–
CC1(C)Oc2ccc(C#N)cc2[C@H](N(Cc2ncco2)c2ccccc2)[C@H]1O,> 30 µM,5.3 µM,<0.18,–,–
CC1(C)Oc2ccc(C#N)cc2[C@H](N(CC(=O)O)c2ccccc2)[C@H]1O,> 100 µM,–,–,0%,–
CCOC(=O)CN(c1ccc(F)cc1)[C@H]1c2cc(C#N)ccc2OC(C)(C)[C@@H]1O,> 30 µM,3.8 µM,<0.017,–,–
CCCCOC(=O)CN(c1ccccc1)[C@H]1c2cc(C#N)ccc2OC(C)(C)[C@@H]1O,27 µM,–,–,8%,–
COC(=O)c1cc2ccccc2n1[C@@H]1c2cc(C#N)ccc2OC(C)(C)[C@H]1O,–,8.1 µM,0.25,–,–
CCOP(=O)(CN(c1ccc(F)cc1)[C@H]1c2cc(C#N)ccc2OC(C)(C)[C@@H]1O)OCC,47 µM,4.9 µM,0.104,–,–
CC1(C)Oc2ccc(C#N)cc2[C@@H](/N=C(\NC#N)Nc2ccc(Cl)cc2)[C@@H]1O,–,2.5 µM,1.4,–,–
CC1(C)Oc2ccc(C#N)cc2[C@@H](N2CCCC2=O)[C@@H]1O [CROMAKALIM],–,8.9 µM,278,–,–

# — ChEMBL document CHEMBL1130015, “Cardioselective antiischemic ATP-sensitive potassium channel (KATP) openers. 5. Identification of 4-(N-aryl)-substituted benzopyran derivatives with high selectivity” (J Med Chem, 1997)
